Measurements reported in PubChem BioAssay (NCI).
Several values for one entry are separate records, joined by “and”; a condition that tells them apart may be missing. Identical values can stand only once.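 Protocol summary: plate cells (96-well), add compound at 5 concentrations, incubate 48 h, interpolate endpoints linearly. At the GI50, growth is halved. TGI denotes the concentration required for complete inhibition of growth.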

What was measured:
Assay in all cases: NCI-60 cell line screen, 48 h
786-0 renal = test system: 786-0 renal
A549 NSCLC = test system: A549 NSCLC
ACHN renal = test system: ACHN renal
CCRF-CEM leukemia = test system: CCRF-CEM leukemia
COLO 205 colon = test system: COLO 205 colon
DLD-1 colon = test system: DLD-1 colon
DMS 273 small cell lung = test system: DMS 273 small cell lung
EKVX NSCLC = test system: EKVX NSCLC
HCC-2998 colon = test system: HCC-2998 colon
HCT-15 colon = test system: HCT-15 colon
HL-60(TB) leukemia = test system: HL-60(TB) leukemia
HOP-18 NSCLC = test system: HOP-18 NSCLC
HOP-62 NSCLC = test system: HOP-62 NSCLC
HOP-92 NSCLC = test system: HOP-92 NSCLC
HT29 colon = test system: HT29 colon
IGROV1 ovarian = test system: IGROV1 ovarian
LOX IMVI melanoma = test system: LOX IMVI melanoma
LXFL 529 NSCLC = test system: LXFL 529 NSCLC
M19-MEL melanoma = test system: M19-MEL melanoma
MALME-3M melanoma = test system: MALME-3M melanoma
MOLT-4 leukemia = test system: MOLT-4 leukemia
NCI-H226 lung = test system: NCI-H226 lung
NCI-H23 lung = test system: NCI-H23 lung
NCI-H460 lung = test system: NCI-H460 lung
OVCAR-3 ovarian = test system: OVCAR-3 ovarian
OVCAR-5 ovarian = test system: OVCAR-5 ovarian
OVCAR-8 ovarian = test system: OVCAR-8 ovarian
RPMI-8226 leukemia = test system: RPMI-8226 leukemia
RXF 393 renal = test system: RXF 393 renal
RXF-631 renal = test system: RXF-631 renal
SF-268 CNS = test system: SF-268 CNS
SF-295 CNS = test system: SF-295 CNS
SF-539 CNS = test system: SF-539 CNS
SK-MEL-2 melanoma = test system: SK-MEL-2 melanoma
SK-MEL-28 melanoma = test system: SK-MEL-28 melanoma
SK-OV-3 ovarian = test system: SK-OV-3 ovarian
SN12C renal = test system: SN12C renal
SNB-19 CNS = test system: SNB-19 CNS
SNB-75 CNS = test system: SNB-75 CNS
SNB-78 CNS = test system: SNB-78 CNS
SR leukemia = test system: SR leukemia
SW-620 colon = test system: SW-620 colon
TK-10 renal = test system: TK-10 renal
U251 CNS = test system: U251 CNS
UACC-257 melanoma = test system: UACC-257 melanoma
UACC-62 melanoma = test system: UACC-62 melanoma
UO-31 renal = test system: UO-31 renal
XF 498 CNS = test system: XF 498 CNS
CAKI-1 renal = test system: CAKI-1 renal
DMS 114 small cell lung = test system: DMS 114 small cell lung
HCT-116 colon = test system: HCT-116 colon
K-562 leukemia = test system: K-562 leukemia
KM12 colon = test system: KM12 colon
KM20L2 colon = test system: KM20L2 colon
M14 melanoma = test system: M14 melanoma
NCI-H522 lung = test system: NCI-H522 lung
A498 renal = test system: A498 renal
OVCAR-4 ovarian = test system: OVCAR-4 ovarian
SK-MEL-5 melanoma = test system: SK-MEL-5 melanoma

COC1CC(OC2C(C)OC(OC3C(C)OC(OC4CCC5(C)C(=CCC6(O)C5CC(OC(=O)c5ccc(O)cc5)C5(C)C(O)(C(C)=O)CCC65O)C4)CC3OC)CC2OC)OC(C)C1O (stereo not given) (tested in a mixture with another compound)
TGI (786-0 renal): 57.1 µM | TGI (A549 NSCLC): > 100 µM | TGI (ACHN renal): > 100 µM | TGI (CCRF-CEM leukemia): 92.7 µM | TGI (COLO 205 colon): 55.3 µM | TGI (DLD-1 colon): > 100 µM | TGI (DMS 273 small cell lung): > 100 µM | TGI (EKVX NSCLC): > 100 µM | TGI (HCC-2998 colon): 60.5 µM | TGI (HCT-15 colon): > 100 µM | TGI (HL-60(TB) leukemia): 46.9 µM | TGI (HOP-18 NSCLC): > 100 µM | TGI (HOP-62 NSCLC): > 100 µM | TGI (HOP-92 NSCLC): 59.5 µM | TGI (HT29 colon): > 100 µM | TGI (IGROV1 ovarian): > 100 µM | TGI (LOX IMVI melanoma): 34.8 µM | TGI (LXFL 529 NSCLC): 78.4 µM | TGI (M19-MEL melanoma): > 100 µM | TGI (MALME-3M melanoma): 74.6 µM | TGI (MOLT-4 leukemia): 82.2 µM | TGI (NCI-H226 lung): > 100 µM | TGI (NCI-H23 lung): 81.6 µM | TGI (NCI-H460 lung): > 100 µM | TGI (OVCAR-3 ovarian): 57.2 µM | TGI (OVCAR-5 ovarian): > 100 µM | TGI (OVCAR-8 ovarian): 82.5 µM | TGI (RPMI-8226 leukemia): 95.8 µM | TGI (RXF 393 renal): > 100 µM | TGI (RXF-631 renal): > 100 µM | TGI (SF-268 CNS): > 100 µM | TGI (SF-295 CNS): > 100 µM | TGI (SF-539 CNS): 72.6 µM | TGI (SK-MEL-2 melanoma): 45.3 µM | TGI (SK-MEL-28 melanoma): > 100 µM | TGI (SK-OV-3 ovarian): > 100 µM | TGI (SN12C renal): > 100 µM | TGI (SNB-19 CNS): > 100 µM | TGI (SNB-75 CNS): > 100 µM | TGI (SNB-78 CNS): 57.2 µM | TGI (SR leukemia): 76.5 µM | TGI (SW-620 colon): > 100 µM | TGI (TK-10 renal): > 100 µM | TGI (U251 CNS): 57.5 µM | TGI (UACC-257 melanoma): 51.3 µM | TGI (UACC-62 melanoma): 52.7 µM | TGI (UO-31 renal): 75 µM | TGI (XF 498 CNS): 9.05 µM

O=c1cccccc1NCCCCCCCCNc1cccccc1=O
TGI (786-0 renal): > 100 µM | TGI (A549 NSCLC): > 100 µM | TGI (ACHN renal): > 100 µM | TGI (CAKI-1 renal): > 100 µM | TGI (CCRF-CEM leukemia): > 100 µM | TGI (COLO 205 colon): > 100 µM | TGI (DLD-1 colon): > 100 µM | TGI (DMS 114 small cell lung): > 100 µM | TGI (DMS 273 small cell lung): > 100 µM | TGI (EKVX NSCLC): > 100 µM | TGI (HCC-2998 colon): > 100 µM | TGI (HCT-116 colon): > 100 µM | TGI (HCT-15 colon): > 100 µM | TGI (HL-60(TB) leukemia): > 100 µM | TGI (HOP-62 NSCLC): > 100 µM | TGI (HOP-92 NSCLC): 87.3 µM | TGI (HT29 colon): > 100 µM | TGI (IGROV1 ovarian): > 100 µM | TGI (K-562 leukemia): > 100 µM | TGI (KM12 colon): > 100 µM | TGI (KM20L2 colon): > 100 µM | TGI (LOX IMVI melanoma): > 100 µM | TGI (LXFL 529 NSCLC): > 100 µM | TGI (M14 melanoma): > 100 µM | TGI (M19-MEL melanoma): > 100 µM | TGI (MALME-3M melanoma): > 100 µM | TGI (MOLT-4 leukemia): > 100 µM | TGI (NCI-H226 lung): > 100 µM | TGI (NCI-H23 lung): > 100 µM | TGI (NCI-H460 lung): > 100 µM | TGI (NCI-H522 lung): > 100 µM | TGI (OVCAR-3 ovarian): > 100 µM | TGI (OVCAR-5 ovarian): > 100 µM | TGI (OVCAR-8 ovarian): > 100 µM | TGI (RPMI-8226 leukemia): > 100 µM | TGI (RXF 393 renal): > 100 µM | TGI (RXF-631 renal): > 100 µM | TGI (SF-268 CNS): > 100 µM | TGI (SF-295 CNS): > 100 µM | TGI (SF-539 CNS): > 100 µM | TGI (SK-MEL-2 melanoma): > 100 µM | TGI (SK-OV-3 ovarian): > 100 µM | TGI (SN12C renal): > 100 µM | TGI (SNB-19 CNS): > 100 µM | TGI (SNB-75 CNS): > 100 µM | TGI (SNB-78 CNS): > 100 µM | TGI (SR leukemia): > 100 µM | TGI (SW-620 colon): > 100 µM | TGI (U251 CNS): > 100 µM | TGI (UACC-257 melanoma): > 100 µM | TGI (UACC-62 melanoma): > 100 µM | TGI (UO-31 renal): > 100 µM | TGI (XF 498 CNS): > 100 µM

CCOc1ccc(/C=C\c2cc(OC)c(OC)c(OC)c2)cc1
TGI (786-0 renal): > 100 µM | TGI (A498 renal): 0.0248 µM | TGI (A549 NSCLC): > 100 µM | TGI (ACHN renal): > 100 µM | TGI (CAKI-1 renal): 18.6 µM | TGI (CCRF-CEM leukemia): 91.3 µM | TGI (COLO 205 colon): 0.399 µM | GI50 (DLD-1 colon): 0.0292 µM | TGI (DLD-1 colon): > 100 µM | TGI (EKVX NSCLC): > 100 µM | TGI (HCT-116 colon): 0.152 µM | GI50 (HCT-15 colon): 0.0322 µM | TGI (HCT-15 colon): 0.286 µM | TGI (HL-60(TB) leukemia): 0.00354 µM and 0.0155 µM | GI50 (HOP-18 NSCLC): > 100 µM | TGI (HOP-18 NSCLC): > 100 µM | TGI (HOP-92 NSCLC): 0.0512 µM | GI50 (IGROV1 ovarian): 0.0317 µM | TGI (IGROV1 ovarian): > 100 µM | TGI (K-562 leukemia): > 100 µM | GI50 (KM12 colon): 0.0172 µM | TGI (KM12 colon): 0.185 µM | TGI (KM20L2 colon): 0.00113 µM | TGI (LOX IMVI melanoma): > 100 µM | TGI (M14 melanoma): > 100 µM | TGI (M19-MEL melanoma): > 100 µM | TGI (MOLT-4 leukemia): 17.8 µM | TGI (NCI-H226 lung): 0.0223 µM and 0.024 µM | TGI (NCI-H23 lung): 0.111 µM | GI50 (OVCAR-4 ovarian): 0.403 µM | TGI (OVCAR-4 ovarian): > 100 µM | TGI (OVCAR-5 ovarian): 61.7 µM | TGI (RPMI-8226 leukemia): 5.03 µM | TGI (RXF 393 renal): 0.000904 µM | TGI (RXF-631 renal): > 100 µM | TGI (SF-268 CNS): > 100 µM | TGI (SF-295 CNS): 0.000209 µM | TGI (SF-539 CNS): 0.000685 µM | TGI (SK-MEL-28 melanoma): > 100 µM | TGI (SK-MEL-5 melanoma): 0.117 µM | TGI (SN12C renal): 60.5 µM | TGI (SNB-75 CNS): 0.000226 µM | TGI (SNB-78 CNS): > 100 µM | TGI (SW-620 colon): > 100 µM | TGI (TK-10 renal): > 100 µM | TGI (U251 CNS): 0.0132 µM and 0.0341 µM | TGI (UACC-257 melanoma): 98.6 µM | TGI (UACC-62 melanoma): > 100 µM | TGI (XF 498 CNS): 0.0917 µM
